As usually defined, the IC50 is the midpoint of a concentration-inhibition curve. Lower therefore signals greater potency in that assay.

For one assay, the system named is CEM-SS. As to the kind of experiment: In vitro cytotoxicity in CEM-SS cell line up to a concentration of 100 uM. Type of assay: functional, cell-based. The note with it: Homo sapiens.
For assay [1], the system named is Human immunodeficiency virus 1. As to the kind of experiment: In vitro anti-HIV-1 activity in CEM-SS cytoprotection assay; No activity. Type of assay: functional, organism-based.

In turn, `COc1cc(OC)c2c(O)c(-c3cc(-c4ccc5c(c4)OCO5)c4cc(OC)cc(OC)c4c3O)cc(-c3ccc4c(c3)OCO4)c2c1` had an IC50 with CEM-SS of more than 100 µM. The EC50 entry in assay [1] was “Not Active”.
Taken in the same sequence, the figures for `COc1cc(OC)c2c(O)c(-c3cc(-c4cccc([N+](=O)[O-])c4)c4cc(OC)cc(OC)c4c3O)cc(-c3cccc([N+](=O)[O-])c3)c2c1` were more than 100 µM and “Not Active”.
Taken in the same sequence, the figures for `COc1cccc2c(-c3cccc([N+](=O)[O-])c3)cc(-c3cc(-c4cccc([N+](=O)[O-])c4)c4cccc(OC)c4c3O)c(O)c12` were more than 100 µM and “Not Active”.
Taken in the same sequence, the figures for `COc1cc(C)cc2c(-c3cccc([N+](=O)[O-])c3)cc(-c3cc(-c4cccc([N+](=O)[O-])c4)c4cc(C)cc(OC)c4c3O)c(O)c12` were more than 100 µM and “Not Active”.
`COc1cc(OC)c2c(O)c(-c3cc(-c4ccccc4)c4cc(OC)cc(OC)c4c3O)cc(-c3ccccc3)c2c1` displayed an IC50 in the assay on CEM-SS of more than 100 µM. In assay [1], the EC50 entry was “Not Active”.
For `COc1cccc2c(-c3cccc(N)c3)cc(-c3cc(-c4cccc(N)c4)c4cccc(OC)c4c3O)c(O)c12`, in that order: more than 100 µM and “Not Active”.
For `COc1cccc2c(-c3ccc(O)cc3O)cc(-c3cc(-c4ccc(O)cc4O)c4cccc(OC)c4c3O)c(O)c12`, in that order: 2.2 µM and “Not Active”.
For `COc1cccc2c(-c3ccc4c(c3)OCO4)cc(-c3cc(-c4ccc5c(c4)OCO5)c4cccc(OC)c4c3O)c(O)c12`, in that order: more than 100 µM and “Not Active”.
`COc1cc(OC)c2c(O)c(-c3cc(-c4ccc(O)cc4O)c4cc(OC)cc(OC)c4c3O)cc(-c3ccc(O)cc3O)c2c1` came in with a half-inhibitory concentration (IC50) with CEM-SS of 3.9 µM. Besides, the EC50 result in assay [1] was “Not Active”.
For `COc1cc(C)cc2c(-c3ccccc3)cc(-c3cc(-c4ccccc4)c4cc(C)cc(OC)c4c3O)c(O)c12`, in that order: more than 100 µM and “Not Active”.
With `COc1cc(OC)c2c(O)c(-c3cc(-c4cccs4)c4cc(OC)cc(OC)c4c3O)cc(-c3cccs3)c2c1`, the IC50 in the assay on CEM-SS is more than 100 µM. Further, in assay [1], the EC50 entry is recorded as “Not Active”.
Taken in the same sequence, the figures for `COc1cccc2c(-c3ccccc3)cc(-c3cc(-c4ccccc4)c4cccc(OC)c4c3O)c(O)c12` were more than 100 µM and “Not Active”.
Taken in the same sequence, the figures for `COc1cc(OC)c2c(O)c(-c3cc(-c4cccc(N)c4)c4cc(OC)cc(OC)c4c3O)cc(-c3cccc(N)c3)c2c1` were more than 100 µM and “Not Active”.
Consider `COc1cc(C)cc2c(-c3cccc(N)c3)cc(-c3cc(-c4cccc(N)c4)c4cc(C)cc(OC)c4c3O)c(O)c12`, for which, in the assay on CEM-SS, the IC50 was more than 100 µM. Moreover, in assay [1], the EC50 entry is listed as “Not Active”.
For `COc1cccc2c(-c3cccs3)cc(-c3cc(-c4cccs4)c4cccc(OC)c4c3O)c(O)c12`, in that order: more than 100 µM and “Not Active”.
Taken in the same sequence, the figures for `COc1cc(C)cc2c(-c3cccs3)cc(-c3cc(-c4cccs4)c4cc(C)cc(OC)c4c3O)c(O)c12` were more than 100 µM and “Not Active”.
Taken in the same sequence, the figures for `COc1cc(C)cc2c(-c3ccc4c(c3)OCO4)cc(-c3cc(-c4ccc5c(c4)OCO5)c4cc(C)cc(OC)c4c3O)c(O)c12` were more than 100 µM and “Not Active”.
As for `COc1cc(C)cc2c(-c3ccc(O)cc3O)cc(-c3cc(-c4ccc(O)cc4O)c4cc(C)cc(OC)c4c3O)c(O)c12`, the IC50 in the assay with CEM-SS came to 2.6 µM. In assay [1], the EC50 entry is “Not Active”.

The values are drawn from ChEMBL document CHEMBL1151997, “Structural analogues of the michellamine anti-HIV agents. Importance of the tetrahydroisoquinoline rings for biological activity” (Bioorg Med Chem Lett, 1997).
